According to US11925650B2, “Antibacterial chemical compound, its manufacturing method and its use thereof” (National Taiwan University, priority 2022, dated 2024):
Where two headings read alike, the source gives them in different places.

Tests used:
[1] = test system: intracellular Salmonella in RAW264.7 cells; experiment: Intracellular Salmonella with cefixime or ciprofloxacin alone or combined with SW14 (HCA); format: cell-based; details: 0.5 μM SW14 combined with CFM or CIP, 24 hours
Experimental: FIG. 4. Salmonella-infected RAW264.7 cells treated with (A) 0.25, 0.5, 1, 2, and 4 mg/L of cefixime (CFM) and (B) 0.03, 0.06, 0.125, 0.25, and 0.5 mg/L of ciprofloxacin (CIP) alone or in combination with 0.5 μM SW14. After 24 hours, the relative numbers of intracellular bacteria were determined using HCA and the results are expressed as relative fluorescence units (RFU).

S. Typhimurium 14028 = experiment: Anti-intracellular Salmonella activity in infected RAW264.7 cells (HCA); format: cell-based, Salmonella Typhimurium
[2] = test system: ciprofloxacin-resistant strain SA10 and SB10; details: SA10 and SB10, SW14 0.3-10 μM with gentamicin, 24 h
Experimental: (§1) FIG. 5. RAW264.7 cells infected with (A) multidrug-resistant strains of S. Typhimurium ATCC 14028, NL08., and 100911R or (B) ciprofloxacin-resistant strains of S. typhimurium ATCC 14028, SA10, and SB10 followed by treatment with 0, 0.3, 1, 3, and 10 μM of SW14 combined with […] gentamicin for 24 h. The relative numbers of intracellular bacteria were determined using HCA and the results are expressed as relative fluorescence units (RFU).
Then extended the investigation to S. typhimurium isolates with resistance to ciprofloxacin.

[3] = test system: S. Typhimurium ATCC 14028; experiment: Bacterial susceptibility to H2O2 (CFU assay); format: cell-based, Salmonella Typhimurium; details: 1 hour
Experimental: (§2) FIG. 10. SW14 sensitizing outer membrane-compromised S. typhimurium to oxidative stress. (A) ROS scavengers reversed the suppressive effects of SW14 on intracellular S. typhimurium. The viabilities of intracellular Salmonella in RAW264.7 cells treated with SW14 with/without the ROS scavengers N-acetyl-cysteine (NAC; 10 mM) or glutathione (GSH; 10 mM) are assessed using HCA. […] Salmonella-infected RAW264.7 cells are loaded with 25 μM H2DCFDA for 45 min followed by treatment with SW14 or PMA at various concentrations. […] S. Typhimurium ATCC 14028 is treated with H2O2 alone or in combination with SW14 (0.5 μM) in (C) LB or (D) LPM for 1 hour followed by evaluation by the CFU assay to determine bacterial viability.
Next, the effects of SW14 on bacterial resistance to ROS are investigated.

[4] = test system: ROS levels in infected macrophages; experiment: ROS production in Salmonella-infected RAW264.7 cells (H2DCFDA); format: cell-based; details: 1 hour; SW14 at concentrations up to 8 μM
Experimental: as §2, with “SW14 sensitizing outer membrane-compromised S. typhimurium to oxidative stress. (A) ROS scavengers reversed the suppressive effects of SW14 on intracellular S. typhimurium.” left out

S. typhimurium = experiment: Bacterial growth in medium (OD600); format: cell-based; details: LB medium and macrophage culture medium, concentrations up to 64 μM, 24 hours
Experimental: FIG. 6. The growth of S. typhimurium in LB medium, cell culture medium (CCM), or LPM medium containing 0, 0.5, and 64 μM of SW14 monitored by measuring the OD600 of each bacterial culture at designated times for a total of 24 h.

[5] = test system: intracellular Salmonella in Atg7 knockdown RAW264.7 cells; experiment: Intracellular bacterial survival in RAW264.7 cells with Atg7 knockdown (HCA); format: cell-based, S. typhimurium; details: shRNA Atg7 knockdown RAW264.7 cells, SW14 0.3 and 1 μM, 24 hours
Text: FIG. 8. RAW264.7 cells transfected with a plasmid to express shRNA targeting Atg7 (shATG7). The levels of the Atg7 protein in the stable transfectants as determined by immunoblotting. Bands for Atg7 were quantified by densitometry and normalized to those of β-actin. Percentages represent the relative expression levels of Atg7 in the shATG7 transfectants compared to the vector transfectants.
FIG. 9. Intracellular bacterial survival in SW14-treated RAW264.7 cells with shRNA-mediated knockdown of Atg7 expression. RAW264.7 cells were transfected with the empty vector (Vec) and infected with S. typhimurium followed by treatment with 0, 0.3, and 1 μM of SW14 and […] gentamicin for 24 hours. The numbers of surviving intracellular bacteria are determined by HCA and the results are expressed as a percentage of the control group. Data shown are the means; error bars represent the SD (n=3). ns: non-significant, P>0.05; *P<0.05 for the differences between the drug-treated groups and their respective control groups.

[6] = test system: multidrug-resistant S. typhimurium NL08.10 and 0911R; details: SW14 0.3-10 μM with gentamicin, 24 h
Experimental: as §1

[7] = test system: S. Typhimurium within macrophages; experiment: Intracellular Salmonella viability with ROS scavengers (HCA); format: cell-based, Salmonella Typhimurium; details: NAC 10 mM or GSH 10 mM
Experimental: as §2
Oxidative stress is another innate defense system in host cells that controls intracellular Salmonella infection. In FIG. 10(A), the suppressive effects of SW14 against S. Typhimurium within macrophages are reversed in the presence of two ROS scavengers, N-acetyl cysteine (NAC) and glutathione (GSH).

[8] = test system: intracellular Salmonella in RAW264.7 cells; experiment: Intracellular Salmonella viability with autophagy inhibitor 3-MA (HCA); format: cell-based, S. typhimurium
Experimental: FIG. 7. Infected RAW264.7 cells treated with 10 mM of 3-MA for 1 h followed by 0.5 μM of SW14 or mock (DMSO) treatment for 24 hours.
Autophagy was originally characterized as a cellular response to stress, but has been considered to be a defense mechanism to combat host cell infection by intracellular Salmonella. Therefore, to evaluated the role of autophagy in SW14's anti-intracellular Salmonella activity, infected cells are treated with 3-MA, an autophagy inhibitor to block cellular autophagy then followed by treatment with SW14 for 24 h. […] Compared to mock-treated cells, the viability of intracellular Salmonella in cells treated with SW14 or the combination of 3-MA and SW14 were 45% and 36.8%, respectively.

[9] = test system: intracellular Salmonella in RAW264.7 cells; experiment: Intracellular bacteria survival, colony-forming unit assay; details: sub-micromolar concentrations, gentamicin 20 mg/L, 24 h
Experimental: The intracellular bacteria survival was assessed using HCA and a CFU assay, and the data are expressed as a percentage relative to the untreated control and are presented as the mean±SD (n=3 per group).

RAW264.7 = experiment: Cytotoxicity in RAW264.7 cells (HCA, MTT cell viability assay); format: cell-based; details: Mus musculus, RAW264.7, read-out: IC50 (μM) RAW264.7
Experimental: The cell viability was evaluated using HCA and an MTT cell viability assay, and the data are expressed as a percentage relative to the untreated control and are presented as the mean±SD (n=3 per group).

## Clc1ccc2c(c1)C(NCCN1CCNCC1)=Nc1ccccc1O2 [SW14, 2-chloro-N-(2-(piperazin-1-yl)ethyl)dibenzo[b,f][1,4]oxazepin-11-amine]
[1]
  enhancement of antibiotic suppression of intracellular Salmonella: can enhance the suppression caused by these antibiotics
S. Typhimurium 14028; IC50 RAW264.7 / EC50 S. Typhimurium 14028
  Selectivity ratio (IC50/EC50): 80.6
S. Typhimurium 14028; Salmonella enterica, TYPHIMURIUM, RAW264.7, read-out: EC50 (μM) S. Typhimurium 14028, intracellular Salmonella in infected RAW264.7 cells
  EC50: 0.5 µM
S. Typhimurium 14028; read-out: EC50 (μM) S. Typhimurium 14028, intracellular Salmonella in infected RAW264.7 cells
  EC50: 0.4 µM
[2]
  intracellular proliferation of ciprofloxacin-resistant isolates: still highly sensitive
[3]; 0.5 μM SW14, LB broth
  susceptibility of S. typhimurium to H2O2 after SW14 treatment, LB broth: not in LB broth
[3]; 0.5 μM SW14, LPM medium
  susceptibility of S. typhimurium to H2O2 after SW14 treatment, LPM medium: significantly increasing
[4]
  ROS levels (H2DCFDA signal) in infected macrophages: did not observe any significant change
S. typhimurium
  inhibitory effect on growth of bacteria in medium: did not show significant inhibitory effects
[5]
  susceptibility of intracellular Salmonella to SW14 after knockdown of Atg7: more susceptible
[6]
  intracellular replication of multidrug-resistant S. typhimurium isolates: remained susceptible
[7]
  suppressive effects against S. Typhimurium within macrophages in presence of ROS scavengers: reversed
[8]; 10 mM 3-MA 1 h, then 0.5 μM SW14 24 hours
  viability of intracellular Salmonella compared to mock-treated cells, combination of 3-MA and SW14: 36.8%
[8]; Salmonella, RAW264.7, 24 h, read-out: viability of intracellular Salmonella compared to mock-treated cells
  viability at 0.5 µM: 45%
[9]
  effect on viability of intracellular Salmonella (CFU assay): potent suppressive effect
RAW264.7
  IC50: 28.7 µM
